Consider 3 molecules from ChEMBL document CHEMBL5143555, “Potentiating the intracellular killing of Staphylococcus aureus by dihydroquinazoline analogues as NorA efflux pump inhibitor” (Bioorg Med Chem, 2022).

In brackets after ≈: the same amount, converted by molar mass. Activity calls are given as the source filed them. The calls are words filed in the database; no cut-off is given here.

Series [1] has as its target T1, Quinolone resistance protein NorA (Staphylococcus aureus) (UniProt P0A0J7).
T1 sequence (whole entry): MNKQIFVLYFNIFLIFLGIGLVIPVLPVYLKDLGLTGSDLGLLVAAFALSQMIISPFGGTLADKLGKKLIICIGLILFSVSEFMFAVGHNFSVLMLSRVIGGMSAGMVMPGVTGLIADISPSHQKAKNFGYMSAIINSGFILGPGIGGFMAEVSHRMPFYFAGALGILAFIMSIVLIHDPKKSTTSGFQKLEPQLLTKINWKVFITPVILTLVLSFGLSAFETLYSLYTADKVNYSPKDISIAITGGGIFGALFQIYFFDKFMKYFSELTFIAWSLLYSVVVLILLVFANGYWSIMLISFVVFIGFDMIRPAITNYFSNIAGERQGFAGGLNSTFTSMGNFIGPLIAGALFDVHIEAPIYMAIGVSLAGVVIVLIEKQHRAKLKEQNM
Put plainly: Inhibition of NorA in Staphylococcus aureus 1199B assessed as accumulation of norfloxacin at 2.5 ug/ml by measuring fluorescence intensity measured at 5 mins interval for 40 mins by fluorescence spectrophotometry. Particulars: dose 2.5 µg/ml.

The target in series [2] is T1, Quinolone resistance protein NorA (Staphylococcus aureus). Put plainly: Inhibition of NorA in Staphylococcus aureus 1199B assessed as potentiation of ethidium bromide-induced antibacterial activity by measuring fractional inhibitory concentration.
In series [3] the test system is Staphylococcus aureus. Put plainly: Antibacterial activity against Staphylococcus aureus 1199B measured after 24 hrs by Muller Hinton broth based MTT assay. Format: functional. (Tetrazolium dyes change colour on reduction, which living cells bring about.)
Series [4] addresses T1, Quinolone resistance protein NorA (Staphylococcus aureus). The series can be described thus: Inhibition of NorA in Staphylococcus aureus 1199B assessed as potentiation of norfloxacin-induced antibacterial activity by measuring fractional inhibitory concentration.
Series [5] has the same target. Put plainly: Inhibition of NorA in Staphylococcus aureus 1199B assessed as potentiation of ethidium bromide-induced antibacterial activity by measuring ethidium bromide MIC at sub MIC relative to ethidium bromide MIC alone.
Series [6] shares this target. Put plainly: Inhibition of NorA in Staphylococcus aureus 1199B assessed as potentiation of norfloxacin-induced antibacterial activity by measuring Norfloxacin MIC at sub MIC relative to norfloxacin MIC alone.
For series [7] the target is unchanged. Put plainly: Inhibition of NorA in Staphylococcus aureus 1199B assessed as accumulation of ethidium bromide at 2.5 ug/ml by measuring fluorescence intensity measured at 5 mins interval for 40 mins by fluorescence spectrophotometry. The note with it: dose 2.5 µg/ml.
Series [8] shares this target. The series can be described thus: Inhibition of NorA in Staphylococcus aureus 1199B assessed as potentiation of norfloxacin-induced antibacterial activity by measuring Norfloxacin MIC at sub MIC.
The target is the same in series [9]. The series can be described thus: Inhibition of NorA in Staphylococcus aureus 1199B assessed as potentiation of ethidium bromide-induced antibacterial activity by measuring ethidium bromide MIC at sub MIC.
The target is the same in series [10]. Put plainly: Inhibition of NorA in Staphylococcus aureus 1199B infected human THP-1 cells assessed as potentiation of norfloxacin-induced bactericidal activity by measuring log reduction in bacterial count measured after 24 hrs relative to vancomycin. Format: cell-based.
Series [11] relates to Staphylococcus aureus. Put plainly: Down regulation of NorA gene expression in Staphylococcus aureus 1199B at 3.1 ug/ml measured after 2 hrs by qRT-PCR analysis relative to control. Format: functional. Particulars: dose 3.1 µg/ml. On the technique in general: Real-time PCR tracks product formation cycle by cycle.
Series [12] concerns the target T1, Quinolone resistance protein NorA (Staphylococcus aureus). Put plainly: Inhibition of NorA in Staphylococcus aureus 1199B infected human THP-1 cells assessed as potentiation of 6.2 ug/ml norfloxacin-induced bactericidal activity by measuring log reduction in bacterial count at 15.6 ug/ml measured after 24 hrs relative to control. Format: cell-based. Particulars: dose 15.6 µg/ml.

Series [13] shares this target. Put plainly: Inhibition of NorA in Staphylococcus aureus 1199B assessed as accumulation of norfloxacin at 3.9 ug/ml by measuring fluorescence intensity measured at 5 mins interval for 40 mins by fluorescence spectrophotometry. Particulars: dose 3.9 µg/ml.
Series [14] relates to Staphylococcus aureus. Put plainly: Antibacterial activity against Staphylococcus aureus 1199 measured after 24 hrs by Muller Hinton broth based MTT assay. Format: functional.
Series [15] deals with T1, Quinolone resistance protein NorA (Staphylococcus aureus). Put plainly: Inhibition of NorA in Staphylococcus aureus 1199B assessed as accumulation of ethidium bromide at 3.9 ug/ml by measuring fluorescence intensity measured at 5 mins interval for 40 mins by fluorescence spectrophotometry. The note with it: dose 3.9 µg/ml.
Series [16] shares this target. Put plainly: Inhibition of NorA in Staphylococcus aureus 1199B assessed as potentiation of norfloxacin-induced morphological changes by measuring appearance of undeveloped cells sticking together at sub MIC by field emission scanning electron microscopy.
Series [17] has the same target. The series can be described thus: Inhibition of NorA in Staphylococcus aureus 1199B infected human THP-1 cells assessed as potentiation of norfloxacin-induced bactericidal activity by measuring reduction in bacterial count at modulatory concentration measured after 24 hrs relative to control. Format: cell-based.
Series [18] has the same target. Put plainly: Inhibition of NorA in Staphylococcus aureus 1199B assessed as potentiation of ethidium bromide-induced bactericidal activity at 62.5 ug/ml measured within 8 hrs by time-kill kinetics assay. Particulars: dose 62.5 µg/ml.
The test system of series [19] is Staphylococcus aureus. The series can be described thus: Down regulation of NorA gene expression in Staphylococcus aureus 1199B at 3.1 ug/ml measured after 2 hrs in presence of norfloxacin by qRT-PCR analysis relative to norfloxacin. Format: functional. Particulars: dose 3.1 µg/ml.
The nature of series [20]: Cytotoxicity against kidney epithelial cells (unknown origin) assessed as cell viability at 50 ug/mL measured after 24 hrs by alamar blue assay relative to control. Format: toxicity, cell-based, Fetal kidney cell. The note with it: at 50 µg/mL, read-out: Activity. A general note: Resazurin is reduced to fluorescent resorufin, in cell work by metabolically active cells.

For series [21], the target named is T1, Quinolone resistance protein NorA (Staphylococcus aureus). The series can be described thus: Inhibition of NorA in Staphylococcus aureus 1199B assessed as potentiation of 3.1 ug/mL norfloxacin-induced bactericidal activity by measuring log reduction in bacterial count at 7.8 ug/mL measured after 8 hrs by time-kill kinetics assay. Particulars: dose 7.8 µg/ml.

Series [22] has the same target. The series can be described thus: Inhibition of NorA in Staphylococcus aureus 1199B infected human THP-1 cells assessed as potentiation of norfloxacin-induced bactericidal activity by measuring reduction in intracellular proliferation at modulatory concentration measured after 24 hrs. It is filed as cell-based.
Series [23] shares this target. Put plainly: Inhibition of NorA in Staphylococcus aureus 1199B infected human THP-1 cells assessed as potentiation of norfloxacin-induced bactericidal activity by measuring reduction in bacterial count at modulatory concentration measured after 24 hrs. It is filed as cell-based.
Series [24] relates to Staphylococcus aureus. The series can be described thus: Down regulation of NorA gene expression in Staphylococcus aureus 1199B at 3.9 ug/ml measured after 2 hrs by qRT-PCR analysis. It is filed as functional. The note with it: dose 3.9 µg/ml.
Series [25] deals with Staphylococcus aureus. The series can be described thus: Antibacterial activity against Staphylococcus aureus K1758 measured after 24 hrs by Muller Hinton broth based MTT assay. It is filed as functional.
The target of series [26] is T1, Quinolone resistance protein NorA (Staphylococcus aureus). Put plainly: Inhibition of NorA in Staphylococcus aureus 1199B infected human THP-1 cells assessed as potentiation of norfloxacin-induced bactericidal activity by measuring reduction in intracellular invasion at modulatory concentration measured after 24 hrs. Format: cell-based.
Series [27] has the same target. Put plainly: Inhibition of NorA in Staphylococcus aureus 1199B assessed as accumulation of ethidium bromide at 50 ug/ml by measuring fluorescence intensity measured at 5 mins interval for 40 mins by fluorescence spectrophotometry. Particulars: dose 50.0 µg/ml.
Series [28] shares this target. Put plainly: Inhibition of NorA in Staphylococcus aureus 1199B assessed as accumulation of norfloxacin at 50 ug/ml by measuring fluorescence intensity measured at 5 mins interval for 40 mins by fluorescence spectrophotometry. The note with it: dose 50.0 µg/ml.

For the molecule `N#CC(C#N)=NNc1cccc(Cl)c1` [CARBONYL CYANIDE M-CHLOROPHENYLHYDRAZONE], the Flu intensity in series [1] was found to be 695; in series [7], 149. For the same molecule, the results for the fractional inhibitory concentration index (FICI) in series [2] and in [4] were 0.562 and 0.625, respectively. The MIC against Staphylococcus aureus [3] came to 20 µg/mL (≈ 97.7 µM); in [8] it was 6.2 µg/mL; in series [9], 3.1 µg/mL. For the same molecule, the fold change (FC) in series [5] is 16; in [6], 8.
As to `CN1c2ccc(Cl)cc2C(c2ccccc2)=NC1c1ccc(Br)cc1` (stereo not given), the FC is 3 in series [10] and 5 in series [12]. Moreover, the values for the fractional inhibitory concentration index (FICI) in series [2] and in series [4] were 0.187 and 0.141, respectively. Further, the fold change (FC) in the series on Staphylococcus aureus [11] amounted to 8; in series [17], 4; in [5], 16; in series [6] it was 8; in the series on Staphylococcus aureus [19], 9. The Flu intensity was 23600 in series [13] and 70.6 in series [15]. Besides, the MIC in the series on Staphylococcus aureus [3] came out at 500 µg/mL (≈ 1210 µM); against Staphylococcus aureus [14] it was 125 µg/mL (≈ 304 µM); against Staphylococcus aureus [25], 250 µg/mL (≈ 607 µM); in series [8], 6.2 µg/mL; in [9] it was 3.1 µg/mL. Besides, the inhibition entry in series [16], in series [18], in [22] and in series [26] was “Active” throughout. The viability at 24 h, 50 ug/mL in series [20] was found to be 86.6%. Further, the Activity is > 3 log10CFU/ml in series [21] and 4.47 log10CFU/ml in series [23]. The result with Staphylococcus aureus [24] was Active.
Take `COc1ccc(CCN(C)CCCC(C#N)(c2ccc(OC)c(OC)c2)C(C)C)cc1OC` (stereo not given) [VERAPAMIL]: the Flu intensity in [27] turned out to be 189; in series [28], 1590. Moreover, the MIC against Staphylococcus aureus [3] was determined as 400 µg/mL (≈ 880 µM); in series [8], 12.5 µg/mL; in series [9], 6.2 µg/mL. Also, the fold change (FC) turned out to be 8 in series [5] and 4 in [6].
